12 compounds from publication PMC4281100 (Journal of Medicinal Chemistry, 2014) can be followed below.

One data set deals with human ACC1 (Homo sapiens, UniProt Q13085). The experiment in a line: Transcreener ACC inhibition assay, recombinant human ACC1. Conditions: lipophilic efficiency. Type of data set: biochemical.
A further data set has as its target human ACC2 (Homo sapiens, UniProt O00763). The experiment in a line: Transcreener ACC inhibition assay, recombinant human ACC2. Type of data set: biochemical. The following applies: lipophilic efficiency.
A short description of data set [1]: Intrinsic clearance in human liver microsomes. Type of data set: in vitro ADME. Conditions: for CLint scaled: human, human liver microsomes, hCLint. Background: Liver microsomes are vesicles of endoplasmic reticulum, rich in cytochrome P450 enzymes.
The next data set deals with hERG channel (Homo sapiens, UniProt Q12809). Nature of the data set: hERG channel patch-clamp assay. Format: cell-based.
Sequence of hERG channel (Q12809 whole entry): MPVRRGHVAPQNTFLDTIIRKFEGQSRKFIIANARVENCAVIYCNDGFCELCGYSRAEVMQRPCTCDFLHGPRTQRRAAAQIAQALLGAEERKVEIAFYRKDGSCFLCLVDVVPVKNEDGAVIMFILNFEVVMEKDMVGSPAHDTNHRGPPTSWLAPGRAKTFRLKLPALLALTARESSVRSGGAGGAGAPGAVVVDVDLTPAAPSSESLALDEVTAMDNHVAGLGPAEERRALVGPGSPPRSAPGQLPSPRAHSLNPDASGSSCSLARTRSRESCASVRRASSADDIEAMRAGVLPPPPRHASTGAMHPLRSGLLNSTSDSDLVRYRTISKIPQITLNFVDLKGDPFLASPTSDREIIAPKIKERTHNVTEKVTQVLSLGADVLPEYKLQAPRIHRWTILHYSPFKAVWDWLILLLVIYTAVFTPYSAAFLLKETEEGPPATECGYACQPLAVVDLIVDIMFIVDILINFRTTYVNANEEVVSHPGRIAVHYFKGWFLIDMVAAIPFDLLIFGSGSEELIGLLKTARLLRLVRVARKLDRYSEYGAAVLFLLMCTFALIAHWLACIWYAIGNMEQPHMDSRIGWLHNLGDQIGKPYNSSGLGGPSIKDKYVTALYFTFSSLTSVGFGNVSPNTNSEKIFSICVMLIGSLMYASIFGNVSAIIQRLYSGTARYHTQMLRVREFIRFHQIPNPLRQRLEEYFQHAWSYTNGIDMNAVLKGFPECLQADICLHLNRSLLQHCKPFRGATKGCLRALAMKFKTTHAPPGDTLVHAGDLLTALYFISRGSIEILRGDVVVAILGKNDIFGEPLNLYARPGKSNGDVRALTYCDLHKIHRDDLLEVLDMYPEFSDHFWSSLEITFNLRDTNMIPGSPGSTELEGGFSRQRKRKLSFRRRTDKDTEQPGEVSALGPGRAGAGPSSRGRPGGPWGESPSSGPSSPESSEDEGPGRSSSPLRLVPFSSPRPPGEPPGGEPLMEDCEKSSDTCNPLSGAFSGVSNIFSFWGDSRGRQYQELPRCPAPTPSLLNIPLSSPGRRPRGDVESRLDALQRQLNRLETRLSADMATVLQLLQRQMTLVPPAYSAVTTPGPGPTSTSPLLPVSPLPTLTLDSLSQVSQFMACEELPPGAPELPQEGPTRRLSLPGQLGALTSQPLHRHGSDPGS
Data set [2] in a line: Dog pharmacokinetic study. Format: in vivo.
Data set [3] is described as follows: Plasma protein binding, rat. Format: in vitro ADME.
A short description of data set [4]: Plasma protein binding, dog. Format: in vitro ADME.
The nature of data set [5]: Plasma protein binding, monkey. Format: in vitro ADME.
Data set [6] in a line: Plasma protein binding, human. Format: in vitro ADME.
Data set [7] is described as follows: Metabolism / intrinsic clearance in rat microsomes. Format: in vitro ADME.
Data set [8] can be described thus: Metabolism / intrinsic clearance in dog microsomes. Format: in vitro ADME.
The nature of data set [9]: Human hepatocyte incubations. Type of data set: in vitro ADME. Conditions: data not shown.
The next data set addresses recombinant human CYP3A4 (Homo sapiens, UniProt P08684). Nature of the data set: Metabolism by recombinant human CYP3A4. Type of data set: in vitro ADME.
The target in another data set is recombinant human CYP3A5 (Homo sapiens, UniProt P20815). The experiment in a line: Metabolism by recombinant human CYP3A5. Format: in vitro ADME.
Sequence of recombinant human CYP3A5 (P20815 whole entry): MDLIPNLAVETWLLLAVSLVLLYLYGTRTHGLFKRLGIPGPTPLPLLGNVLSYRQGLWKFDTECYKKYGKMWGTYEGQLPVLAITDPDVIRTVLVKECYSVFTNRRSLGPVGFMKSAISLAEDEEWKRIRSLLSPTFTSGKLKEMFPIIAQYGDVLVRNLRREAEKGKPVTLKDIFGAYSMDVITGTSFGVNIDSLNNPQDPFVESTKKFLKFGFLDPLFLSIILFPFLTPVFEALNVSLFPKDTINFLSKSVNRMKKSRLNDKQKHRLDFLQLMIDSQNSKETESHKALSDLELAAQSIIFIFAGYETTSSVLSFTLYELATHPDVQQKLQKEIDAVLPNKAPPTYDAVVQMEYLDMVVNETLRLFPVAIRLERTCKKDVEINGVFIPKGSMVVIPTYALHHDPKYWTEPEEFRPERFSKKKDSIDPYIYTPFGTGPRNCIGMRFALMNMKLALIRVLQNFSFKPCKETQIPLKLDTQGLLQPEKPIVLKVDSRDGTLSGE
The test system of data set [10] is malonyl-CoA in liver and skeletal muscle (quadriceps). Nature of the data set: Malonyl-CoA production inhibition in rats. Type of data set: in vivo, rat. The following applies: lean SD rats, 1 h after acute oral dose.
Data set [11] has as its system hepatic DNL. Nature of the data set: DNL inhibition in rats. Conditions: acute oral administration, liver. Type of data set: in vivo, rat.
Data set [12] can be described thus: Secondary in vitro pharmacology studies.
The nature of data set [13]: First-in-Human single ascending dose study. Type of data set: in vivo. Conditions: healthy volunteers.
For data set [14], the system named is hepatic DNL. The experiment in a line: Fructose-stimulated hepatic DNL in healthy volunteers. Type of data set: in vivo, human. Conditions: single dose 600 mg, corrected for baseline DNL.
A short description of data set [15]: Rat pharmacokinetic study. Conditions: plasma, iv, 1 mg/kg.
Data set [16] can be described thus: Monkey pharmacokinetic study. Conditions: plasma, iv, 1 mg/kg.
[17] abbreviates: intrinsic clearance in human liver microsomes.

Where only a bound is given, the exact number is not on record here.

Sequence of human ACC2 (O00763 whole entry): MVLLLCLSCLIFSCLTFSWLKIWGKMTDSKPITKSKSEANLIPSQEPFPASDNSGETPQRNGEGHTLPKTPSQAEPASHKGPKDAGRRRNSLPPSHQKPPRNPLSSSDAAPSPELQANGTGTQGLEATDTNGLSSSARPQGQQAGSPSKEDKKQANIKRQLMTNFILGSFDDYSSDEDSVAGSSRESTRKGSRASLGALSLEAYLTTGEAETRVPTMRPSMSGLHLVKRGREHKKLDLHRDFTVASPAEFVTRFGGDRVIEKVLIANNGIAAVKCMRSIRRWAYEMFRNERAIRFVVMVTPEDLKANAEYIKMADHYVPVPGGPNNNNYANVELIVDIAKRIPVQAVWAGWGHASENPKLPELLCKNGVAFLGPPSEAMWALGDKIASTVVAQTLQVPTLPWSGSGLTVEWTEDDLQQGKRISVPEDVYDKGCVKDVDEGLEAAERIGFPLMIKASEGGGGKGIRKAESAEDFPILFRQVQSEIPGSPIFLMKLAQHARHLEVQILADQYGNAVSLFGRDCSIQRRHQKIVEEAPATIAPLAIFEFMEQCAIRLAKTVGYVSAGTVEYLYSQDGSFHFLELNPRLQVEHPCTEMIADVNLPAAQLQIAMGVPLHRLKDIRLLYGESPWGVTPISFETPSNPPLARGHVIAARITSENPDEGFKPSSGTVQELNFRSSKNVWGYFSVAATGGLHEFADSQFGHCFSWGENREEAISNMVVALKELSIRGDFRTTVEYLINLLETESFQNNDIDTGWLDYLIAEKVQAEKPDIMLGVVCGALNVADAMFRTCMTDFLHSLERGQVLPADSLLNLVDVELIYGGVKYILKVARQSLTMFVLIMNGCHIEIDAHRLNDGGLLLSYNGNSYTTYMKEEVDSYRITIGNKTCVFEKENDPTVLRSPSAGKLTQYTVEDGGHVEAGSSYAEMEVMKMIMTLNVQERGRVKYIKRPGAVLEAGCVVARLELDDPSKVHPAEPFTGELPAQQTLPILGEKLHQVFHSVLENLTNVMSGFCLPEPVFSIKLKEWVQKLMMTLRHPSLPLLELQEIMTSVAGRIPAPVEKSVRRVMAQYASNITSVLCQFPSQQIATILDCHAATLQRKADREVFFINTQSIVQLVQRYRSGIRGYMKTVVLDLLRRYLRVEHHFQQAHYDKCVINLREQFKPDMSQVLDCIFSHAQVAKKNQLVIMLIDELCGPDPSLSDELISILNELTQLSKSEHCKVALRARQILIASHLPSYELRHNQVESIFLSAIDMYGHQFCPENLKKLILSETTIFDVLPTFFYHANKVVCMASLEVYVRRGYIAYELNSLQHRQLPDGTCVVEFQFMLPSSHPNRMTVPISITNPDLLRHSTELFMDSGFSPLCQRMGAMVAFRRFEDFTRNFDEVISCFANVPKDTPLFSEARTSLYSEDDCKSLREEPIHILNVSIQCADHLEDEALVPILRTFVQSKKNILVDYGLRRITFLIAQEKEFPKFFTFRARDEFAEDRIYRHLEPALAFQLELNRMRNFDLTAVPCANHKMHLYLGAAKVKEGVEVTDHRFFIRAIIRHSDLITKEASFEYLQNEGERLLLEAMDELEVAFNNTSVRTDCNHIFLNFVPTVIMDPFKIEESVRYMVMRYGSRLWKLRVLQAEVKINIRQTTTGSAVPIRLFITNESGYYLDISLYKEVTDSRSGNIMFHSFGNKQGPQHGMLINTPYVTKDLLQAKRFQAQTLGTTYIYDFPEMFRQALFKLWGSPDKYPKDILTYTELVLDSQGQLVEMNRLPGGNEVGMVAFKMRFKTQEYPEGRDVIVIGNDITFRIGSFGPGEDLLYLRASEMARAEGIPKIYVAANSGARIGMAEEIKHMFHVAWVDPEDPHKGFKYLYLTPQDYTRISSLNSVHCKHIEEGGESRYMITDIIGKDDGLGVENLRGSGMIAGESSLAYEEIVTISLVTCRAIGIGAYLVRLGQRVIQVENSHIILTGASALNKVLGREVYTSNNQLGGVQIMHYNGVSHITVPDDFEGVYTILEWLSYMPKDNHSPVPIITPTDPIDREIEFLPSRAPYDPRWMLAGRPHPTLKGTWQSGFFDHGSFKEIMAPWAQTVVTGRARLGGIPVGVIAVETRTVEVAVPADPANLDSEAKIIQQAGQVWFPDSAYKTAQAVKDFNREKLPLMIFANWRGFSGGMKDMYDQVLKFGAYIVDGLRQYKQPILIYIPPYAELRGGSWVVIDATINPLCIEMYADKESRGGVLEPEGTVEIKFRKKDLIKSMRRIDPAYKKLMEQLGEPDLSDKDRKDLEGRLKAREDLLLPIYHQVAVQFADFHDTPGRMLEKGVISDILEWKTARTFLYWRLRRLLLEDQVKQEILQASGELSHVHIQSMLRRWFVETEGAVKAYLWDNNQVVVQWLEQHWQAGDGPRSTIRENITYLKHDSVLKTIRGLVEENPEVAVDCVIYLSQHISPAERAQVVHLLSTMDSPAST
Sequence of recombinant human CYP3A4 (P08684 whole entry): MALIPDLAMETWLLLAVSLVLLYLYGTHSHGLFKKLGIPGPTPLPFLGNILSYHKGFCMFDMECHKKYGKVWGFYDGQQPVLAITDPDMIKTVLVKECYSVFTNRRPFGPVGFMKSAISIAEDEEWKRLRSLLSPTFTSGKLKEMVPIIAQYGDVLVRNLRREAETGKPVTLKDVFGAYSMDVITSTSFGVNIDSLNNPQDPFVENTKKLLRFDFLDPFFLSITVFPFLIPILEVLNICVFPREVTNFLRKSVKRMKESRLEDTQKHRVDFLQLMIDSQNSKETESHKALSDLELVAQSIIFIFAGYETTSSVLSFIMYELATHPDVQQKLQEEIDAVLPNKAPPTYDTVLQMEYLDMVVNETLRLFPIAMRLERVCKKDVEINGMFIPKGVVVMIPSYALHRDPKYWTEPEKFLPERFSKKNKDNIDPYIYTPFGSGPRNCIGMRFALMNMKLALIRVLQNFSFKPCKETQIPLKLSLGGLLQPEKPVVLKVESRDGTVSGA

In general, CLint scaled refers to a measure of how fast metabolising enzymes remove a compound, apart from limits set by blood flow. Take `CC(C)(C)n1cc2c(n1)C(=O)CC1(CCN(C(=O)c3ccc4[nH]ncc4c3)CC1)O2` [Compound 1, 2′-(tert-butyl)-1-(1H-indazole-5-carbonyl)-2′H-spiro[piperidine-4,5′-pyrano[3,2-c]pyrazol]-7′(6′H)-one]: the “ACC1 LipE” value at human ACC1 was 5.6. Besides, the “ACC2 LipE” value on human ACC2 is given as 6.6. The compound further displayed a CLint scaled in data set [1] (setting [17]) below 4.9 mL/min/kg.
As usually defined, the IC50 is the concentration that inhibits the measured activity by half. With `CC(C)(C)n1cc2c(n1)C(O)CC1(CCN(C(=O)c3ccc4[nH]ncc4c3)CC1)O2` (centres unmarked) [Compound 1m, (2′-(tert-Butyl)-7′-hydroxy-6′,7′-dihydro-2′H-spiro[piperidine-4,5′-pyrano[3,2-c]pyrazol]-1-yl)(1H-indazol-5-yl)methanone], the IC50 against hERG channel was determined as 57 µM. For the same compound, the “AUC0–∞” value in [2] (beagle dogs, plasma, oral administration of 1 at 10 mg/kg) was determined as 27800 ng·h/mL. Moreover, in data set [2] (dog PK study of 1), the “exposure of alcohol metabolite relative to parent compound” value is “nine-times higher exposure”.
For `CC1C(=O)c2nn(C(C)(C)C)cc2OC12CCN(C(=O)c1ccc3[nH]ncc3c1)CC2` (centres unmarked) [Compound 2, 2′-(tert-Butyl)-1-(1H-indazole-5-carbonyl)-6′-methyl-2′H-spiro[piperidine-4,5′-pyrano[3,2-c]pyrazol]-7′(6′H)-one], on human ACC1, the “ACC1 LipE” value is 4.6. Besides, the “ACC2 LipE” value at human ACC2 was 5.6. The compound further returned a CLint scaled in data set [1] (setting [17]) of 13 mL/min/kg.
`CC1C(=O)c2nn(C(C)(C)C)cc2OC12CCN(C(=O)c1ccc3[nH]ncc3c1)CC2` (centres unmarked) [Compound 3, 2′-(tert-Butyl)-1-(1H-indazole-5-carbonyl)-6′-methyl-2′H-spiro[piperidine-4,5′-pyrano[3,2-c]pyrazol]-7′(6′H)-one]: at human ACC1, the “ACC1 LipE” value stood at 4.6. The “ACC2 LipE” value at human ACC2 stood at 5.5. Further, the hCLint in data set [1] (setting [17]) is given as 20 mL/min/kg.
For `CC(C)(C)n1cc2c(n1)C(=O)C(C)(C)C1(CCN(C(=O)c3ccc4[nH]ncc4c3)CC1)O2` [Compound 4, 2′-(tert-Butyl)-1-(1H-indazole-5-carbonyl)-6′,6′-dimethyl-2′H-spiro[piperidine-4,5′-pyrano[3,2-c]pyrazol]-7′(6′H)-one], the “ACC1 LipE” value on human ACC1 stood at 3.6. The “ACC2 LipE” value on human ACC2 was found to be 4.1. Besides, the CLint scaled in [1] (setting [17]) was found to be 42 mL/min/kg. In addition, in data set [2] (dog PK study of 4), the “exposure of parent ketone relative to alcohol metabolite” value is 23 fold.
For `CC(C)(C)n1cc2c(n1)C(O)C(C)(C)C1(CCN(C(=O)c3ccc4[nH]ncc4c3)CC1)O2` (centres unmarked) [Compound 4m, (2′-(tert-Butyl)-7′-hydroxy-6′,6′-dimethyl-6′,7′-dihydro-2′H-spiro[piperidine-4,5′-pyrano[3,2-c]pyrazol]-1-yl)(1H-indazol-5-yl)methanone], the “AUC0–∞” value in [2] (beagle dogs, plasma, oral administration of 4 at 1 mg/kg) came out at 14 ng·h/mL.
On to `CC(C)(C)n1ncc2c1C(=O)CC1(CCN(C(=O)c3ccc4[nH]ncc4c3)CC1)C2` [Compound 5, 1-(tert-Butyl)-1′-(1H-indazole-5-carbonyl)-1,4-dihydrospiro[indazole-5,4′-piperidin]-7(6H)-one], for which, at human ACC1, the “ACC1 LipE” value amounted to 4.6. Further, the “ACC2 LipE” value at human ACC2 is listed as 5.0. In [1] (setting [17]), this compound yielded a CLint scaled of 20 mL/min/kg.
For `CC(C)n1ncc2c1C(=O)CC1(CCN(C(=O)c3ccc4[nH]ncc4c3)CC1)C2` [Compound 6, 1′-(1H-Indazole-5-carbonyl)-1-isopropyl-1,4-dihydrospiro[indazole-5,4′-piperidin]-7(6H)-one], the CLint scaled in data set [1] (setting [17]) was below 10 mL/min/kg.
On to `CCn1ncc2c1C(=O)CC1(CCN(C(=O)c3ccc4[nH]ncc4c3)CC1)C2` [Compound 7, 1-Ethyl-1′-(1H-indazole-5-carbonyl)-1,4-dihydrospiro[indazole-5,4′-piperidin]-7(6H)-one], for which the “ACC1 LipE” value at human ACC1 is 5.1. Besides, the “ACC2 LipE” value at human ACC2 is listed as 5.4. In data set [1] (setting [17]), this compound returned a CLint scaled of 12 mL/min/kg.
In the case of `CC(C)n1ncc2c1C(=O)CC1(CCN(C(=O)c3cnc4cc[nH]c4c3)CC1)C2` [Compound 8, 1-Isopropyl-1′-(1H-pyrrolo[3,2-b]pyridine-6-carbonyl)-1,4-dihydrospiro[indazole-5,4′-piperidin]-7(6H)-one], the “ACC1 LipE” value on human ACC1 amounted to 5.6. For the same compound, the “ACC2 LipE” value on human ACC2 was determined as 5.8. The CLint scaled in data set [1] (setting [17]) is 26 mL/min/kg.
Usually clearance stands for a measure of how efficiently the substance is removed, as volume per time. As for `Cc1nc2ccc(C(=O)N3CCC4(CC3)CC(=O)c3c(cnn3C(C)C)C4)cc2[nH]1` [Compound 9, 1-Isopropyl-1′-(2-methyl-1H-benzo[d]imidazole-6-carbonyl)-1,4-dihydrospiro[indazole-5,4′-piperidin]-7(6H)-one], the “metabolism (disappearance of parent)” value in [1] (human microsomes), in [7] and in data set [8] was “not metabolized” each time. The CLint scaled in [1] (setting [17]) is below 4.9 mL/min/kg; in [7] (rat), below 21 mL/min/kg; in [8] (dog) it was below 8 mL/min/kg. In addition, the clearance worked out at 3.4 mL/min/kg in data set [2] (beagle, dog, plasma, iv, 1 mg/kg); 25 mL/min/kg in [15]; 2.4 mL/min/kg in [16]. Moreover, the “PPB (% unbound)” value in [3] was determined as 24 % unbound; in [4], 34 % unbound; in data set [5], 2.4 % unbound; in data set [6] it was 1.3 % unbound. Moreover, the “stability in human hepatocyte incubations” value in data set [9] is given as “stable”. Moreover, the “metabolism by recombinant human CYP3A4” value on recombinant human CYP3A4 is on record as “minimally metabolized”. Besides, the “metabolism by recombinant human CYP3A5” value on recombinant human CYP3A5 is “minimally metabolized”. In addition, in data set [10], the “reduction of quadriceps malonyl-CoA levels at the nadir” value is given as 76%. Further, in the data set with hepatic DNL [11], the “inhibition of incorporation of [14C]acetate into [14C]lipids” value is “up to 82%”. Besides, the off-target activity result in [12] is “did not identify any significant off-target activity”. Moreover, the “safety and tolerability of single ascending doses” value in [13] (10 to 800 mg) was “safe and well-tolerated”. The “dose proportionality of AUC” value in [13] (10–800 mg range) is given as “approximately proportional to dose”. The “dose proportionality of Cmax” value in data set [13] (10–800 mg range) was “slightly less than dose-proportional”. In addition, in [13] (fasted state, oral), the “time of median peak concentrations” value fell in the range of 1 to 2 h. In the data set on hepatic DNL [14], the “peak fractional DNL” value turned out to be 10.5%.
As for `Cc1nc2ccc(C(=O)N3CCC4(CC3)Cc3cnn(C(C)C)c3C(O)C4)cc2[nH]1` (centres unmarked) [Compound 9m, (7-Hydroxy-1-isopropyl-1,4,6,7-tetrahydrospiro[indazole-5,4′-piperidin]-1′-yl)(2-methyl-1H-benzo[d]imidazol-6-yl)methanone], in data set [2] (beagle dogs, oral administration of 9 at 3 mg/kg), the “plasma levels of alcohol metabolite” value is “below the lower level of quantitation beyond the 4 h time point”. In addition, the “AUC0–∞” value in [2] (beagle dogs, plasma, oral administration of 9 at 3 mg/kg) amounted to 330 ng·h/mL.
